In US10669252B2, “Benzazepine derivative, preparation method, pharmaceutical composition and use thereof” (SHANGHAI DE NOVO PHARMATECH CO., LTD., priority 2016, dated 2020) one finds EC50 data, which are given here for 30 molecules.

The target of this assay is T1, TLR8 (Homo sapiens, UniProt Q9NR97).
T1 construct: host or cells: HEK293 (HEK-BLUE-hTLR8)
T1 sequence (Q9NR97 27-1041): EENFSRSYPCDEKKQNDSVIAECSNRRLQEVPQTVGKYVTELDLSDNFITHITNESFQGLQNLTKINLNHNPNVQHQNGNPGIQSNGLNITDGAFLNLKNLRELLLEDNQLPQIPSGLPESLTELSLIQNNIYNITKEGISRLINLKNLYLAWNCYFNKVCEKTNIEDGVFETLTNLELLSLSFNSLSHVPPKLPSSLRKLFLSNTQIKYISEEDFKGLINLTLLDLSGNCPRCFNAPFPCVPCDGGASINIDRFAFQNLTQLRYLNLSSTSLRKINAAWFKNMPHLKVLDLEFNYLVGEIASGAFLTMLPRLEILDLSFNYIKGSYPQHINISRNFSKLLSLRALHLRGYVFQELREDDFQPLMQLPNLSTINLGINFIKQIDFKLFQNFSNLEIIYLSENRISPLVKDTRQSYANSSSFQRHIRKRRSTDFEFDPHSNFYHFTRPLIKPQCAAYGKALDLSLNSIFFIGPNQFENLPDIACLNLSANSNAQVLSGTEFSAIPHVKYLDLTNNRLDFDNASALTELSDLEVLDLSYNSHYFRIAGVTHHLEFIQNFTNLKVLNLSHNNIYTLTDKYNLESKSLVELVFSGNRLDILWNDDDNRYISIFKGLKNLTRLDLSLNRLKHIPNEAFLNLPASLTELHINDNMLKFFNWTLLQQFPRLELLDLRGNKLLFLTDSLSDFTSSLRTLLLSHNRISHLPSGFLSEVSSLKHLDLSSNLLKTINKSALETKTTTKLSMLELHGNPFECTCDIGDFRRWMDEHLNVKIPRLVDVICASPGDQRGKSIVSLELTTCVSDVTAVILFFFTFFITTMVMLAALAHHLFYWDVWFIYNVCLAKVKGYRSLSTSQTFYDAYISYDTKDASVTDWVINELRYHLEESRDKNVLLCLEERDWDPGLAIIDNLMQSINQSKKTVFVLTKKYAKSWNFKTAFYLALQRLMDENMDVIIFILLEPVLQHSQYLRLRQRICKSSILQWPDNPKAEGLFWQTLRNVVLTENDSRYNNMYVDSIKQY
The assay is described as follows: TLR8 cell based assay (HEK-BLUE-hTLR8, SEAP reporter linked to NF-κB activation). Conditions: HEK-BLUE-hTLR8 cells. As to the method: In this assay, the bioactivity of compound of formula Iw as measured using a cell based assay. The assay was performed in human embryonic kidney cells (HEK293) expressing TLR8 or other TLR family members such as TLR4, TLR7 and TLR9 (for selectivity screens). The activity of specific TLR agonists was assessed using the secretory embryonic alkaline phosphatase (SEAP) reporter gene that is linked to NF-κB activation in response to TLR stimulation. The SEAP activity was measured using the Quanti-Blue substrate (InvivoGen) after TLR agonist treatment.
The detailed experimental method is as follow:
HEK-BLUE-hTLR8 cell line was purchased from InvivoGen. The cells were cultured in Dulbecco's Modified Eagle's Media containing 4.5 g/L […] (Sigma-Aldrich) and 10% FBS. The cells were cultured at 37° C., 95% humidity and 5% CO2.
Test concentrations of the compounds ranged from 0.5 nM to 15 μM with 10 points. A known TLR8 agonist was added as positive control and 1 μl of DMSO was added as negative control.
The cells were prepared as follows: The cells were removed from the incubator and growth medium was discarded. The cells were gently rinsed with pre-warmed 10 ml PBS for a T-150 flask. 12 ml pre-warmed growth medium was added, and the cells were detached by tapping the flask. Cell clumps were dissociated by gently pipetting up and down. The cells were counted. Single cell suspension was prepared at 200,000 cells per ml in growth medium and 200 μl of the cell suspension (40,000 cells per well) were immediately added to each well of the plate. The final DMSO concentration of each well was 0.5%.
The cells were cultured and treated with the compounds at 37° C., 5% CO2 for 24 h.
20 μL of the supernatant of each well were added to 180 μL of QUANTI-Blue, and the plates were incubated at 37° C. for 1.5 hour. Optical density was measured using a spectrophotometer at 650 nm (OD data). Activivation was calculated by using the equation below: Activivation %=(Compound OD mean value−DMSO OD mean value)/(positive control OD mean value−DMSO OD mean value)×100
The data were analyzed using the GraphPad to get EC50 values and fitting dose response curves of the compounds.

The mark [1] stands for this setting: 24 h treatment, SEAP/QUANTI-Blue readout.

Where only a bound is given, the exact number is not on record here.

With `CCCN(CCC)C(=O)C1=Cc2ccc(-c3ccc4c(=O)n(CCc5ccccn5)ccc4c3)cc2N=C(N)C1` [Compound 1-2-50], the half-maximal effective concentration (EC50) under setting [1] was in the range of 100 to 1000 nM.
Under setting [1], `CCCN(CCC)C(=O)C1=Cc2ccc(-c3ccc4c(=O)n(CCNS(C)(=O)=O)c(=O)n(C)c4c3)cc2N=C(N)C1` [Compound 1-9-6] showed a concentration for a half-maximal effect (EC50) of less than 100 nM.
Under setting [1], `CCCN(CCC)C(=O)C1=Cc2ccc(-c3ccc4ccn(CCO)c(=O)c4c3)cc2N=C(N)C1` [Compound 1-2-51] yielded a half-maximal effective concentration (EC50) of 1000 to 10000 nM.
Under setting [1], `CCCN(CCC)C(=O)C1=Cc2c(F)cc(-c3ccc4c(=O)n(CC(=O)NC)cnc4c3)cc2N=C(N)C1` [Compound 1-10-8] registered an EC50 of less than 100 nM.
For the molecule `CCCN(CCC)C(=O)C1=Cc2ccc(-c3ccc4c(=O)n(Cc5ccno5)ccc4c3)cc2N=C(N)C1` [Compound 1-2-29], under setting [1], the half-maximal effective concentration (EC50) lay within 100 to 1000 nM.
The same measure, in the same setting: under `CCCN(CCC)C(=O)C1=Cc2ccc(-c3ccc4c(=O)n(CCN(C)C)ccc4c3)cc2N=C(N)C1` [Compound 1-2-12] stands 100 to 1000 nM; under `CCCN(CCC)C(=O)C1=Cc2ccc(-c3ccc4c(=O)n(Cc5ccccc5)ncc4c3)cc2N=C(N)C1` [Compound 1-8-19], 100 to 1000 nM; under `CCCN(CCC)C(=O)C1=Cc2ccc(-c3ccc4c(c3)CN(CC)C4=O)cc2N=C(N)C1` [Compound 1-3-1], less than 100 nM.
Molecule `CCCN(CCC)C(=O)C1=Cc2ccc(-c3ccc4c(=O)n(Cc5nc(OC)cc(OC)n5)ncc4c3)cc2N=C(N)C1` [Compound 1-8-21] showed a concentration for a half-maximal effect (EC50) under setting [1] of less than 100 nM.
`CCCN(CCC)C(=O)C1=Cc2ccc(-c3ccc4c(=S)n(CCS(C)(=O)=O)ncc4c3)cc2N=C(N)C1` [Compound 1-14-2]: the EC50 by setting is: under setting [1], less than 100 nM; (bound stated) less than 10 nM.
`CCCN(CCC)C(=O)C1=Cc2c(F)cc(-c3ccc4c(=O)n(CC(=O)NCC)ccc4c3)cc2N=C(N)C1` [Compound 1-10-7] returned an EC50 under setting [1] of less than 100 nM.
In turn, `CCCN(CCC)C(=O)C1=Cc2ccc(-c3ccc4c(=O)n(CC(C)(C)O)cnc4c3)cc2N=C(N)C1` [Compound 1-7-5] gave a concentration for a half-maximal effect (EC50) under setting [1] of less than 100 nM.
`CCCN(CCC)C(=O)C1=Cc2ccc(-c3ccc4c(=O)n(CCP(=O)(OCC)OCC)ncc4c3)cc2N=C(N)C1` [Compound 1-8-14]: under setting [1], the EC50 was less than 100 nM.
Under setting [1], `CCCN(CCC)C(=O)C1=Cc2ccc(-c3ccc4c(=O)n(Cc5nccn5C(C)C)ccc4c3)cc2N=C(N)C1` [Compound 1-2-49] returned a 50% effective concentration (EC50) of less than 100 nM.
For the molecule `CCCN(CCC)C(=O)C1=Cc2ccc(-c3ccc4c(=O)n(CCOC)ncc4c3)cc2N=C(N)C1` [Compound 1-8-9], the EC50 was less than 100 nM under setting [1] and less than 10 nM (bound stated).
Molecule `CCCN(CCC)C(=O)C1=Cc2ccc(-c3ccc4c(=O)n(CCC(N)=O)ncc4c3)cc2N=C(N)C1` [Compound 1-8-7] yielded a concentration giving a half-maximal response (EC50) under setting [1] of less than 100 nM.
Under setting [1], `CCCN(CCC)C(=O)C1=Cc2ccc(-c3ccc4c(=O)n(CC(N)=O)cnc4c3)cc2N=C(N)C1` [Compound 1-7-1] had an EC50 of 100 to 1000 nM.
`CCCN(CCC)C(=O)C1=Cc2ccc(-c3ccc4c(=O)n(CC(C)C)ccc4c3)cc2N=C(N)C1` [Compound 1-2-5] gave a concentration for a half-maximal effect (EC50) under setting [1] of 100 to 1000 nM.
Still for that read-out and setting: the result for `CCCN(CCC)C(=O)C1=Cc2ccc(-c3cc4c(=O)n(CC)ccc4s3)cc2N=C(N)C1` [Compound 1-5-2] reads 1000 to 10000 nM.
For `CCCN(CCC)C(=O)C1=Cc2ccc(-c3ccc4c(=O)n(CC(=O)N(C)C)ccc4c3)cc2N=C(N)C1` [Compound 1-2-24], under setting [1], the EC50 is less than 100 nM.
Turning to `CCCN(CCC)C(=O)C1=Cc2ccc(-c3ccc4c(=O)n(CC(=O)N5CCCC5)ccc4c3)cc2N=C(N)C1` [Compound 1-2-26], the concentration for a half-maximal effect (EC50) under setting [1] was less than 100 nM.
On to `CCCN(CCC)C(=O)C1=Cc2ccc(-c3cnc4c(c3)CN(CCO)C4=O)cc2N=C(N)C1` [Compound 1-6-1], for which the EC50 under setting [1] lay within 100 to 1000 nM.
Consider `CCCN(CCC)C(=O)C1=Cc2ccc(-c3ccc4c(=O)n(Cc5ncnn5C)ccc4c3)cc2N=C(N)C1` [Compound 1-2-41], for which the half-maximal effective concentration (EC50) was less than 100 nM under setting [1] and less than 10 nM (bound stated).
Take `CCCN(CCC)C(=O)C1=Cc2c(F)cc(-c3ccc4c(=O)n(CCS(C)(=O)=O)c(=O)n(C)c4c3)cc2N=C(N)C1` [Compound 1-10-10]: under setting [1], the half-maximal effective concentration (EC50) lay in the range of 100 to 1000 nM.
The molecule `CCCN(CCC)C(=O)C1=Cc2c(F)cc(-c3ccc4c(=O)n(CC(=O)NC)c(=O)n(C)c4c3)cc2N=C(N)C1` [Compound 1-10-5] showed a 50% effective concentration (EC50) under setting [1] of less than 100 nM.
Turning to `CCCN(CCC)C(=O)C1=Cc2c(F)cc(-c3ccc4c(=O)n(CCS(C)(=O)=O)ncc4c3)cc2N=C(N)C1` [Compound 1-10-2], the concentration for a half-maximal effect (EC50) under setting [1] was less than 100 nM.
Same read-out and setting: the result for `CCCN(CCC)C(=O)C1=Cc2ccc(-c3ccc4c(=O)n(CCn5ccnc5)ccc4c3)cc2N=C(N)C1` [Compound 1-2-37] reads less than 100 nM.
On to `CCCN(CCC)C(=O)C1=Cc2ccc(-c3ccc4c(=O)n(Cc5cnccn5)ccc4c3)cc2N=C(N)C1` [Compound 1-2-44], for which the EC50 under setting [1] is less than 100 nM.
Under setting [1], `CCCN(CCC)C(=O)C1=Cc2ccc(-c3ccc4c(=O)[nH]ccc4c3)cc2N=C(N)C1` [Compound 1-1-1] yielded an EC50 of 1000 to 10000 nM.
For `[2H]c1cc(-c2ccc3c(=O)n(Cc4ncccn4)ncc3c2)cc2c1C=C(C(=O)N(CCC)CCC)CC(N)=N2` [Compound 2-3-3], the EC50 runs as follows: under setting [1], less than 100 nM; (bound stated) less than 10 nM.

As usually defined, the EC50 is the concentration needed to bring the measured effect to its halfway point. Higher therefore signals a less potent agent.
